Assays:
[1] = tested on: volatile fatty acid concentrations in the in vitro rumen fermentation; assay: in vitro rumen fermentation, volatile fatty acids (high concentrate substrate, alfalfa hay:concentrate 1:3); design: species or system sheep
Procedure: (§1) A one gram sample of substrate ground through a 1 mm screen is weighted into 100 ml. lipless beakers equipped with gas-release valves. The substrate consists of alfalfa hay containing approximately 16% protein and a concentrate containing ground corn 60.7%, alfalfa meal 17.5%, molasses 10.0%, soybean meal 5.3%, wheat bran 5.0%, trace mineralized salt 1.0%, limestone 0.5% and Vitamin D 300,000 I.U./ton, mixed in the proportion 3:1. The experimental composition is added to the substrate. 25 ml. of filtered rumen fluid obtained from fasted sheep maintained on feed the same as the above mentioned substrate and 25 ml. of McDougal's buffer solution serve as the inoculum. The buffer solution is as follows:
(§2) The fermentation mixture is flushed with carbon dioxide and the vessel is capped with a gas release valve. The fermentation vessel (beaker) is placed in a water bath and incubated at 39° C.±1° for six hours. The sample is mixed every hour by shaking the beaker.
(§3) At the end of the 6-hour fermentation period the sample is strained through 4 layers of cheesecloth into a sample bottle containing 1 ml. saturated solution of mercuric chloride. The sample is frozen immediately until analyzed for the volatile fatty acids (VFA) (mg/100 ml.). Prior to analysis, each sample is acidified with 30% phosphoric acid and then analyzed by gas chromatography using a column containing 5% nonylphenoxypolyoxyethylene ethanol plus 0.5% phosphoric acid on 100-120 mesh Gas Chrom S. The acids determined are acetic, propionic, butyric, isobutyric, valeric and isovaleric acids. Total VFA is considered as the addition of these acids. The ratio of acetic:propionic (A:P) is obtained by dividing the concentration of acetic acid by that of propionic acid.
The procedure is described in Example 3. In this example, however, the substrate consisted of alfalfa hay and concentrate in the ratio of 1:3 and inoculum was obtained from sheep fed alfalfa and concentrate in the ratio of 1:3. The concentrate (Fit-N-Fresh)is commercially available from Agway, Inc. and contains grain products, plant protein products, processed grain by-products, cane molasses, minerals, vitamins and a preservative.
The 2,2,2-trichloroethyl ester of glycine was tested in vitro in a manner similar to that described in Example 4.

[2] = tested on: volatile fatty acid concentrations in fistulated sheep; assay: volatile fatty acid concentrations in vivo in sheep with rumen fistulae (227 g concentrate + 680 g alfalfa hay); design: species or system sheep (wethers); details: for acetic:propionic ratio (in words) / proportion of propionic acid (in words): fistulated sheep; for Total acids (mg/100 ml.): Table 3, treatment day 7
Text: (§4) Mature sheep (wethers) fitted with permanent rumen fistulae were used to determine the effect of L-phenylalanine, 2,2,2-trichloroethyl ester on volatile fatty acid concentrations in vivo (3 wethers per treatment). The animals were individually penned and fed 227 g. of concentrate (described in Example 3) and 680 g. of alfalfa hay once daily. The test compound was admixed with the concentrate. The sheep were medicated for 7 days. Samples for analysis were obtained before (Day 0) and after treatment (Day 7) approximately 6 hours after feeding.

[3] = body weight gain and feed efficiency of growing lambs; assay type: in vivo, lambs (wether and ewe)
Procedure: A test was conducted to determine if feeding L-phenylalanine 2,2,2-trichloroethyl ester to growing lambs was effective in improving growth and feed efficiency. Wether and ewe lambs were divided into groups of 30 lambs each. They were acclimated to their pens for 2 weeks prior to treatment.
The feed supplied to the animals had the following composition
The test compound in an amount of 0.0055% (50 g/ton) was admixed with the above feed composition.
Body weights and feed consumption were recorded at 0, 2, 4 and 6 weeks. Feed efficiencies were calculated.
The test procedure of Example 9 was followed to test the growth effect and feed efficiency of glycine 2,2,2-trichloroethyl ester on growing lambs. The feed composition of Example 9 was used but contained glycine 2,2,2-trichloroethyl ester in an amount of 0.0044% (40 g/ton). There were 44 lambs in the control group receiving the feed composition without additive and 42 lambs receiving the feed composition containing the amino acid ester.
The test procedure of Example 9 was followed to test the growth effect and feed efficiency of L-phenylalanine 2,2,2-trichloroethyl ester on growing lambs. The feed composition of Example 9 was used but contained 0.0088% (80 g/ton) of this amino acid ester. There were 59 lambs in the control group fed the feed without additive and 58 lambs in the group fed the feed composition containing the test compound.

[4] = tested on: volatile fatty acid concentrations in the in vitro rumen fermentation; assay: in vitro rumen fermentation, volatile fatty acids (alfalfa hay:concentrate 3:1); design: species or system sheep; details: for Acetic / Acetic Propionic (ratio) / Propionic / Total Acids / butyric: Table 10, 0.2 mg/ml
Text: Based on the knowledge of the foregoing, a practical method of testing growth promoters in vitro has been the simulation of conditions in the rumen with fermentation reactions. Such a method comprises adding the test substance to a substrate such as ground hay, corn or mixtures of feed materials. Rumen fluid from a fasted ruminant (bovine, ovine, or caprine) is mixed with a buffer solution and added to a fermentation flask containing the test additive and the substrate. The flask is purged of oxygen, stoppered with a pressure release valve, and incubated at 39°±1° C. for periods up to 48 hours. The change in volatile fatty acid concentration is determined by chemical analysis of the rumen fluid before and after fermentation. As a control, the above experiment is run without a test additive.
as §1, §2, §3
The effect of various compounds alone on the volatile fatty acid concentrations was determined by the procedure of Example 3. […] A direct comparison between phenylalanine and phenylalanine trichloroethyl ester is provided.

[5] = tested on: volatile fatty acid concentrations in the rumen of fistulated wethers; assay: volatile fatty acid concentrations in the rumen of fistulated wethers (454 g concentrate + 454 g chopped mixed hay); assay type: in vivo, sheep (wethers); details: for Total acids (mg/100 ml): Table 4, treatment day 7
Text: as §4
An experiment similar to that described in Example 5 was performed except that the animals (3 per treatment) were fed 454 g. of concentrate (described in Example 3) and 454 g. of chopped mixed (grasses) hay.

[6] = fistulated wethers, concentrate/mixed hay diet

Structure (SMILES) | acetic:propionic ratio (in words) [1] | propionic acid concentration (in words) [1] | acetic:propionic ratio (in words) [2] | proportion of propionic acid (in words) [2] | Acetic [4] | Acetic Propionic (ratio) [4] | Propionic [4] | Total Acids [4] | butyric [4] | further results
NCC(=O)OCC(Cl)(Cl)Cl [2,2,2-trichloroethyl ester of glycine, aminoacetic acid 2,2,2-trichloroethyl ester] | decreasing the acetic:propionic ratio | effective in increasing propionic acid concentration | decreasing the acetic:propionic ratio | effective in increasing the proportion of propionic acid | – | – | – | – | – | Total acid (mg/100 ml) ([2]; Table 6, 500 mg/head/day, treatment): 731 mg/100 ml; Weight gain ([3]; Table 8, 0.0044% (40 g/ton) in feed, 0-2 wks, control 2.32): 2.31 kg; Weight gain ([3]; Table 8, 0.0044% (40 g/ton) in feed, 0-4 wks, control 5.09): 5.13 kg; Feed efficiency gain/feed ([3]; Table 8, 0.0044% (40 g/ton) in feed, 0-6 wks, control 0.148): 0.154 gain/feed; Weight gain ([3]; Table 8, 0.0044% (40 g/ton) in feed, 0-6 wks, control 7.18): 7.37 kg
N[C@@H](Cc1ccc(Cl)cc1)C(=O)O (racemic) [p-chlorophenylalanine] | – | – | – | – | 91 % of Control | 101 % of Control | 91 % of Control | 91 % of Control | 92 % of Control | –
O=CC(Cl)(Cl)Cl [chloral] | – | – | – | – | 88 % of Control | 80 % of Control | 110 % of Control | 96 % of Control | 110 % of Control | –
N[C@@H](Cc1ccccc1)C(=O)O [L-phenylalanine] | – | – | – | – | 95 % of Control | 100 % of Control | 94 % of Control | 96 % of Control | 97 % of Control | –
N[C@@H](Cc1ccccc1)C(=O)OCC(Cl)(Cl)Cl [L-Phenylalanine 2,2,2-trichloroethyl ester] | decreasing the acetic:propionic ratio | effective in increasing the propionic acid concentration | decreased the acetic:propionic ratio | increased the proportion of propionic acid | – | – | – | – | – | acetic to propionic acid ratio (in words) ([4]; at all levels): decreasing the acetic to propionic acid ratio; propionic acid concentrations (in words) ([4]; at all levels): effective in increasing the propionic acid concentrations; Total acids (mg/100 ml.) ([2]; 200 mg/head/day): 667 mg/100 ml.; Total acids (mg/100 ml.) ([2]; 500 mg/head/day): 624 mg/100 ml.; Total acids (mg/100 ml) ([5]; 200 mg/head/day): 663 mg/100 ml; Total acids (mg/100 ml) ([5]; 500 mg/head/day): 734 mg/100 ml; acetic:propionic ratio (in words) [5, 6]: decreasing the acetic:propionic ratio; proportion of propionic acid (in words) [5, 6]: effective in increasing the proportion of propionic acid; feed efficiency of growing lambs (in words) ([3]; 0.0055% (50 g/ton) in the feed): improving feed efficiency; gains of growing lambs (in words) ([3]; 0.0055% (50 g/ton) in the feed): effective in increasing gains; Body weight gain ([3]; Table 7, 0.0055% (50 g/ton) in feed, 0-2 wks., control 2.47): 2.97 kg; Body weight gain ([3]; Table 7, 0.0055% (50 g/ton) in feed, 0-4 wks., control 5.80): 5.82 kg; Body weight gain ([3]; Table 7, 0.0055% (50 g/ton) in feed, 0-6 wk., control 8.51): 9.08 kg; Feed efficiency (gain/unit of feed) ([3]; Table 7, 0.0055% (50 g/ton) in feed, 0-6 wks., control 0.190): 0.196 gain/unit of feed; Weight gain ([3]; Table 9, 0.0088% (80 g/ton) in feed, 0-2 wks, control 1.50): 1.49 kg; Weight gain ([3]; Table 9, 0.0088% (80 g/ton) in feed, 0-4 wks, control 4.44): 4.63 kg; Feed efficiency gain/feed ([3]; Table 9, 0.0088% (80 g/ton) in feed, 0-6 wks, control 0.160): 0.168 gain/feed; Weight gain ([3]; Table 9, 0.0088% (80 g/ton) in feed, 0-6 wks, control 7.56): 7.81 kg

Reference: US4192889A, “Ruminant feeds containing trichloroethyl esters of essential amino acids” (E. R. Squibb & Sons, Inc., priority 1979, dated 1980)
